Molecular target: T1, androgen receptor (Rattus norvegicus, UniProt P15207)
T1 construct: from tissue; host or cells: prostate cytosol (209,000 g supernatant) of male Sprague Dawley rats castrated 24 hours previously
T1 sequence (P15207 1-902): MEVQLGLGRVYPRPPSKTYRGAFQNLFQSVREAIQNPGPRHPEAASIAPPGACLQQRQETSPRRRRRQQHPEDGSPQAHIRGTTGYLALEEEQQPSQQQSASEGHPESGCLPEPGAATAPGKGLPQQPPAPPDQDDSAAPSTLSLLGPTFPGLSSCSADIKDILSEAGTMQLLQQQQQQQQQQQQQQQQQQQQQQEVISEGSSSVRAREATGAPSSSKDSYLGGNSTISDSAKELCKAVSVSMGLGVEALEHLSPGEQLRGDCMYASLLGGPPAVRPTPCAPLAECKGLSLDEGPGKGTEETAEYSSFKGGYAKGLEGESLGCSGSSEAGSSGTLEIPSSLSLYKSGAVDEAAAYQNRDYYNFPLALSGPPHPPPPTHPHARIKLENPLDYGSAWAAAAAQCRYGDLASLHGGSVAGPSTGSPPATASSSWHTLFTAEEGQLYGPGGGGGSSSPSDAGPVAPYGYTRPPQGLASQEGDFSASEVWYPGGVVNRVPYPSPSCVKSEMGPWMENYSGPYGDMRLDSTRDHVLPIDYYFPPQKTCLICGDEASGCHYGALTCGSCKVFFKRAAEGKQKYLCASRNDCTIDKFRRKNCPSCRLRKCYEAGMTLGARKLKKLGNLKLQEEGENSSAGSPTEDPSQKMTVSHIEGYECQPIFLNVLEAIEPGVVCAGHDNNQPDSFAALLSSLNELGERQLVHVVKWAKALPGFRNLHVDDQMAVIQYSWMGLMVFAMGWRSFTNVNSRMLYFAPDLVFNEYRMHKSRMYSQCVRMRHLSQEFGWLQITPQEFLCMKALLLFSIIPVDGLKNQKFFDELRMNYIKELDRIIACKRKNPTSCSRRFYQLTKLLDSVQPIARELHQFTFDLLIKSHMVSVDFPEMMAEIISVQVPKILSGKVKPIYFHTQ
Assay: Affinity of the products for the androgen receptor (relative bond affinity, displacement of tritiated testosterone in prostate cytosol)
Format: binding
Procedure: Study of the affinity of the products for the androgen receptor
Calculation of the relative bond affinity (RBA).
The following 2 curves were drawn: the percentage of bound tritiated hormone B/T as a function of the logarithm of the concentration of the unlabelled reference hormone and B/T as a function of the logarithm of the concentration of the unlabelled tested product. The straight line of the equation I50 =(B/Tmax+B/Tmin)/2 was determined.
B/T max=% of the bound tritiated hormone for an incubation of this tritiated hormone at the concentration (T).
B/T min=% of the bound tritiated hormone for an incubation of this tritiated hormone at the concentration (T) in the presence of a large excess of unlabelled hormone (2500.10^-9 M).
The intersections of the straight line I50 and the curves allowed the evaluation of the concentrations of the unlabelled reference hormone (CH) and of the tested unlabelled product (CX) which inhibit by 50% the binding of the tritiated hormone on the receptor.

| SMILES | RBA: Incubation 24 hours |
| --- | --- |
| N#Cc1ccc(N2C(=O)N(CCCCO)C3(CCOCC3)C2=O)cc1C(F)(F)F [Example 3, 4-(2,4-dioxo-1-(4-hydroxybutyl)-8-oxa-1,3-diazaspiro[4.5]decan-3-yl)-2-(trifluoromethyl)-benzonitrile] | 6 |
| N#CCN1C(=O)N(c2ccc(C#N)c(C(F)(F)F)c2)C(=O)C12CCOCC2 [Example 10, 3-(4-cyano-3-(trifluoromethyl)-phenyl)-2,4-dioxo-8-oxa-1,3-diazaspiro[4.5]decan-1-acetonitrile] | 5 |

— US5646172A, “Method of inducing antiandrogenic activity using imidazolidines substituted with a heterocycle” (Roussel Uclaf, priority 1994, dated 1997)
